Measurements as given in article PMC2783175 (Archives of biochemistry and biophysics, 2009).

Target: T1, Cystathionine β-synthase (CBS) (Homo sapiens, UniProt P35520)
T1 sequence (P35520 1-408): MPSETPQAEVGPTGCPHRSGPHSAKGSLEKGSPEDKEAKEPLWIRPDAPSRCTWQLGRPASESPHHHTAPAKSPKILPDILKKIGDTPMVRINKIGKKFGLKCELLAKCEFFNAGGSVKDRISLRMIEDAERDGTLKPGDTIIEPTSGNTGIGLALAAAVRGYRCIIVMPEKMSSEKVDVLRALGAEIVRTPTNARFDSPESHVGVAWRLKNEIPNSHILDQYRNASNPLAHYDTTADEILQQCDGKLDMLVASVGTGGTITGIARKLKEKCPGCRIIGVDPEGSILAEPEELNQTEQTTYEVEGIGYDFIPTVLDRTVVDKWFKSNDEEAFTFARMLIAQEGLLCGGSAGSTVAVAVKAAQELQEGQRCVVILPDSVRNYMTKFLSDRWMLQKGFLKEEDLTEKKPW
Test: Loss of purified enzyme activity
Type: biochemical

IC50: ~150 µM
SMILES: O=NOO [peroxynitrite, oxoperoxonitrate(1-)]
